Test results taken from patent US9416134B2 (Signal Pharmaceuticals, LLC, priority 2014, dated 2016).
In brackets after ≈: the same amount, converted by molar mass.

Experiments:
[1] = Water solubility of Form 1 (observation from slurry experiment in water); type: physicochemical
Protocol: After the slurry time, the solids were separated from the solutions by centrifugation, harvested wet and analyzed by XRPD and digital imaging. The solids were then exposed to accelerated aging conditions (2 days at 40° C./75% RH), followed by XRPD re-analysis.
The slurry experiment in water for two weeks at room temperature produced the anhydrous starting material, Form 1.

[2] = Feasibility study on Form 1 (solubility in freeze-drying solvent mixtures); type: physicochemical; conditions: thermodynamic from solid
Protocol: The freeze drying experiments were performed in 1.8 ml vials. Approximately 20 mg of starting material were weight in a HPLC vial and dissolved in five different solvent mixtures. […] These two experimental samples were freeze-dried in liquid nitrogen, followed by placing the vials in a freeze-dryer for 24 hours. The obtained solid was then harvested and analyzed by XRPD and digital imaging.
Grinding experiments were performed in stainless steel grinding vials, containing 2 stainless steel grinding balls and a frequency of 30 Hz. Following the experiments, XRPD analysis was performed to assess the crystallinity of the materials.

Solubility in water [1]: practically insoluble | solubility ([2]; aqueous with cosolvent or surfactant or cyclodextrin, THF/Water (50/50), 25.1 mg in 1000 μL, not dissolved): < 25 mg/mL | solubility ([2]; organic solvent or mixture, Ethanol/water (90/10), 24.2 mg in 400 μL, not dissolved): < 60 mg/mL | solubility ([2]; organic solvent or mixture, TFE/water (90/10), 20.7 mg in 1000 μL, dissolved): 21 mg/mL (≈ 62.4 mM) | solubility ([2]; organic solvent or mixture, TFE, 21.9 mg in 1000 μL, dissolved): 22 mg/mL (≈ 65.4 mM) | solubility ([2]; organic solvent or mixture, THF/water (90/10), 24.8 mg in 1000 μL, not dissolved): < 25 mg/mL
Structure (SMILES): CCN1C(=O)CNc2ncc(-c3ccc(-c4nc[nH]n4)nc3C)nc21 [Form 1, 1-ethyl-7-(2-methyl-6-(1H-1,2,4-triazol-3-yl)pyridin-3-yl)-3,4-dihydropyrazino[2,3-b]pyrazin-2(1H)-one]
